Data as given in patent publication US20180185520A1, “COLLAGEN IMAGING COMPOSTIONS” (Collagen Medical, LLC, priority 2015, published 2018).
Bridge positions count the residues as written; N and C are the ends. Square brackets hold non-standard residues; d marks the D form. Primed or numbered codes have the meaning given here. Ends that are not written are not given here. Peptide text beside a SMILES is read from it. * marks the point of attachment. X1 = O=C(O)CN1CCN(CC(=O)O)CCN([C@H](CCC(=O)*)C(=O)O)CCN(CC(=O)O)CC1; GdDOTAGA″ = gadolinium DOTAGA chelate, amide-bonded; Bip = N[C@@H](Cc1ccc(-c2ccccc2)cc1)C(=O)O

Legend:
[1] = biological target: T1, Canine collagen (Native canine Collagen Type I and III protein) (Canis lupus familiaris, UniProt O46392+Q9XSJ7); experiment: Collagen binding assay, dried canine collagen in microtiter plate; settings: 37° C., pH 7.4; read-out: Collagen Binding Dog (Kd)
T1 construct: purchased YO protein AB 739
Experimental: Canine collagen (Native canine Collagen Type I and III protein, YO protein AB, cat#739) is dissolved in 0.5 M acetic acid at 3.3 mg/ml by vortexing and shaking overnight at 4° C. The solution is then dialyzed against 10 mM Phosphate (NaH2PO4), pH 4.2 at 4° C. with three changes of the dialysis buffer.
Ice-cold 1×PBS pH 10.8 is added to the collagen solution for a final collagen concentration of 10 μM, pH 7.4. Collagen solutions are gelled and dried down in the wells of a 96 well microtiter plate (Corning Polystyrene Flat Bottom, cat#3641). 70 μl of 10 μM collagen is aliquoted into each well in every other lane in the plate (48 wells) and the plate is incubated at 37° C. for 18 hours to form a gel and evaporate to dryness. […] The final well content of gelled collagen is measured by determination of hydroxyproline and is around 180 μg/ml.
(§1) a serial dilution of 0.2 μM-30 μM of the peptide chelate is prepared in PBS, pH 7.4 ([…], of solution for each concentration). […] The concentration of free, unbound compound in the sample supernatants and the concentration of compound in the reserved (total) sample are determined by ICP-MS (Agilent 7500, gadolinium concentration). The concentration of compound bound to collagen is determined as [bound]=[total]−[unbound].
(§2) The binding of compounds to human, rat and dog collagen (5 μM) was measured over the concentration range 0.2-5 μM of Comp ID Nos.: 1-4. […]

human type I collagen = biological target: T2, human type I collagen (Homo sapiens, UniProt P02452+P08123); experiment: Collagen binding assay, dried human collagen in microtiter plate; settings: 37° C., pH 7.4
T2 construct: purchased Advanced Biomatrix 5007-A
Experimental: 10 ml of a solution of 3 mg/ml of human type I collagen (VitroCol solution, Advanced Biomatrix, cat#5007-A) is dialyzed against 10 mM Phosphate (NaH2PO4), pH 4.2 at 4° C. with three changes of the dialysis buffer. The protein concentration is determined by liquid chromatography determination of hydroxyproline (P. Hutson, J. Chromatogr. B, 791 (2003) 427-430).
Ice-cold 1×PBS pH 10.8 is added to the collagen solution for a final collagen concentration of 10 μM, pH 7.4. Collagen solutions are gelled and dried down in the wells of a 96 well microtiter plate (Corning Polystyrene Flat Bottom, cat#3641). […] The final well content of gelled collagen is measured by determination of hydroxyproline and is around 180 μg/ml.
as §1, §2

[2] = biological target: rat collagen (acid soluble, type I, rat tail, Millipore Inc, cat#08-115) (rat) (UniProt P02454); experiment: dried collagen film in microtiter plate; unbound compound by ICP-MS (Gd); fit to 1 binding site

T2 sequence (P02452 162-1218 limits assumed): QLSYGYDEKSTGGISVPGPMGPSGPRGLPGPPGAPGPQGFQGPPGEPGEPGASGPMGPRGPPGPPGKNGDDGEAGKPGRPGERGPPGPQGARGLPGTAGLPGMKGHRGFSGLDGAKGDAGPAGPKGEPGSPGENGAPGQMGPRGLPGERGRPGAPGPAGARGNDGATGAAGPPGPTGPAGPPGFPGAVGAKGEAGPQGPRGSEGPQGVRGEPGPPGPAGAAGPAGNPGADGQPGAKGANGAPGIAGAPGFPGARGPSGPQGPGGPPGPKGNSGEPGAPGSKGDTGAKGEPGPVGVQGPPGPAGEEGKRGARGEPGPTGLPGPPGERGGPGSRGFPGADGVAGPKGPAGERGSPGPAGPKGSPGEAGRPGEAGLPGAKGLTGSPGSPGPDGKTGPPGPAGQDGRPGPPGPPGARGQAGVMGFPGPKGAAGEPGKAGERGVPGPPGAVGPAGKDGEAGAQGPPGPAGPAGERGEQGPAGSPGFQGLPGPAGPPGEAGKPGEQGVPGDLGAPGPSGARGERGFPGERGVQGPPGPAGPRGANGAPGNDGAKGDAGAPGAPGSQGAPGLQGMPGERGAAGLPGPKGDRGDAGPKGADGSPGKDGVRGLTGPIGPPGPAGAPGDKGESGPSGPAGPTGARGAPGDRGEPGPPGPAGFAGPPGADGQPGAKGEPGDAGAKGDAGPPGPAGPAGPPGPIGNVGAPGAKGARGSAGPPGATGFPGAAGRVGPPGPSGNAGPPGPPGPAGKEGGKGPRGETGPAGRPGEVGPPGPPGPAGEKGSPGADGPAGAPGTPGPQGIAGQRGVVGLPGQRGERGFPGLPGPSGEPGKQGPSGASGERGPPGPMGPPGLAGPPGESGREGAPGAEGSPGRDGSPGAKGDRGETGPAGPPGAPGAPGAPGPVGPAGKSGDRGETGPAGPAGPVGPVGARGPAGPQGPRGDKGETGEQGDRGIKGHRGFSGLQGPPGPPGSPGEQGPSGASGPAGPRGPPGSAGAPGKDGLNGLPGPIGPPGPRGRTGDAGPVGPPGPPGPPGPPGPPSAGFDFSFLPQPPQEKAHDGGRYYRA
T2 sequence (P08123 80-1119 limits assumed): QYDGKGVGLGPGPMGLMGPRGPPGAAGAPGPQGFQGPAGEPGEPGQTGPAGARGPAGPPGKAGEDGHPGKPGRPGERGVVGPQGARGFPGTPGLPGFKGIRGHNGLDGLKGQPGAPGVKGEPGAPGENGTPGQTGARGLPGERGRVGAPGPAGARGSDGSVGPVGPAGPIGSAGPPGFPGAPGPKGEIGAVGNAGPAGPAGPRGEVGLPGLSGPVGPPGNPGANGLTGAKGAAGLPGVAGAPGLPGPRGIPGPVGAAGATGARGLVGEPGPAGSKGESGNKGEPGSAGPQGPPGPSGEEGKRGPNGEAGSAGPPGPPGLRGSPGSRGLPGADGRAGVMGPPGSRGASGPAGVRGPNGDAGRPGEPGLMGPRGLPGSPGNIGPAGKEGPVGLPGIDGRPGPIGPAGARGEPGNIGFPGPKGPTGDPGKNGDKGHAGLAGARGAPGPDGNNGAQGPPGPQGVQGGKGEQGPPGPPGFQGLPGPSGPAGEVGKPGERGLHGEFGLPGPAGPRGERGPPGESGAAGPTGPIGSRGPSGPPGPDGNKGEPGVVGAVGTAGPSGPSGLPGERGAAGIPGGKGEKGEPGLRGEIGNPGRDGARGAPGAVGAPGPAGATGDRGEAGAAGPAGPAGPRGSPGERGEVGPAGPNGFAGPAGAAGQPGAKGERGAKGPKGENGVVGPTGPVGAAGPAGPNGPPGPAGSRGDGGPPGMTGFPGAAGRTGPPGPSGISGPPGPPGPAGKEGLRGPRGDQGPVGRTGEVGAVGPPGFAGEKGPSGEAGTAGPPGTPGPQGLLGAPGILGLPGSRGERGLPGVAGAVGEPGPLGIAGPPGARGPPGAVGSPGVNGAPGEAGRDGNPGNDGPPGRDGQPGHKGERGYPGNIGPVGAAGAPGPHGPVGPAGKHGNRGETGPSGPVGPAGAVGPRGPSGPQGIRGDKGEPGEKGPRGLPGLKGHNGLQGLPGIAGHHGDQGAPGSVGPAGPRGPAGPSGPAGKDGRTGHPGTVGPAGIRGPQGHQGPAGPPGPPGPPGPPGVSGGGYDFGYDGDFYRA
T1 sequence (Q9XSJ7 158-1214 limits assumed): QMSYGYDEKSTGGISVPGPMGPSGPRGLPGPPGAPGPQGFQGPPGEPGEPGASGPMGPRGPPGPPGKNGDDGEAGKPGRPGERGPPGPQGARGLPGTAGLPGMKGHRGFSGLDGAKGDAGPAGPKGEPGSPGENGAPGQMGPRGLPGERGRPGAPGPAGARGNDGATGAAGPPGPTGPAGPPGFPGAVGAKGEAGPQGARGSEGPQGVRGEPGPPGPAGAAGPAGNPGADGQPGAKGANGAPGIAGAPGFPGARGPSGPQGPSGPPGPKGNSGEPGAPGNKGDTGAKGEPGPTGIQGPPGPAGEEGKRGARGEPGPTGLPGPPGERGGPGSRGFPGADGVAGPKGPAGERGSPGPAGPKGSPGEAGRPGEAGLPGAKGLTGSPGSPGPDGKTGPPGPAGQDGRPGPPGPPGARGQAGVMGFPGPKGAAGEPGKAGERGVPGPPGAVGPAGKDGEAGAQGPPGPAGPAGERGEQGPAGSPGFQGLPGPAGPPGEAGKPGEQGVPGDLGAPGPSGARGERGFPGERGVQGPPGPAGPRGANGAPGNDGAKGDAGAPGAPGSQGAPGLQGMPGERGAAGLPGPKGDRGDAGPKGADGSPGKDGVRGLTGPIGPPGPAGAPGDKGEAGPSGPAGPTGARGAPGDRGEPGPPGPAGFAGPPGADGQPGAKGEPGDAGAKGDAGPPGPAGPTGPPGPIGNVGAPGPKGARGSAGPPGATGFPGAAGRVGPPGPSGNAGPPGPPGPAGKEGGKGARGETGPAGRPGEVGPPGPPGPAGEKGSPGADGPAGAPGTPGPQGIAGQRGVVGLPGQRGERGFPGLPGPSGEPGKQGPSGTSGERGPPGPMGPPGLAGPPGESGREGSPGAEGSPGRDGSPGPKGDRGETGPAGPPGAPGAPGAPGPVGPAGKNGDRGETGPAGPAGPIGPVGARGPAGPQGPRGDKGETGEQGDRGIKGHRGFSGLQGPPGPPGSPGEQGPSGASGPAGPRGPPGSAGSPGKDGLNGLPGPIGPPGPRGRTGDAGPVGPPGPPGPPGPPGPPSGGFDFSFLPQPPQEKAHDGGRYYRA
T1 sequence (O46392 80-1119 limits assumed): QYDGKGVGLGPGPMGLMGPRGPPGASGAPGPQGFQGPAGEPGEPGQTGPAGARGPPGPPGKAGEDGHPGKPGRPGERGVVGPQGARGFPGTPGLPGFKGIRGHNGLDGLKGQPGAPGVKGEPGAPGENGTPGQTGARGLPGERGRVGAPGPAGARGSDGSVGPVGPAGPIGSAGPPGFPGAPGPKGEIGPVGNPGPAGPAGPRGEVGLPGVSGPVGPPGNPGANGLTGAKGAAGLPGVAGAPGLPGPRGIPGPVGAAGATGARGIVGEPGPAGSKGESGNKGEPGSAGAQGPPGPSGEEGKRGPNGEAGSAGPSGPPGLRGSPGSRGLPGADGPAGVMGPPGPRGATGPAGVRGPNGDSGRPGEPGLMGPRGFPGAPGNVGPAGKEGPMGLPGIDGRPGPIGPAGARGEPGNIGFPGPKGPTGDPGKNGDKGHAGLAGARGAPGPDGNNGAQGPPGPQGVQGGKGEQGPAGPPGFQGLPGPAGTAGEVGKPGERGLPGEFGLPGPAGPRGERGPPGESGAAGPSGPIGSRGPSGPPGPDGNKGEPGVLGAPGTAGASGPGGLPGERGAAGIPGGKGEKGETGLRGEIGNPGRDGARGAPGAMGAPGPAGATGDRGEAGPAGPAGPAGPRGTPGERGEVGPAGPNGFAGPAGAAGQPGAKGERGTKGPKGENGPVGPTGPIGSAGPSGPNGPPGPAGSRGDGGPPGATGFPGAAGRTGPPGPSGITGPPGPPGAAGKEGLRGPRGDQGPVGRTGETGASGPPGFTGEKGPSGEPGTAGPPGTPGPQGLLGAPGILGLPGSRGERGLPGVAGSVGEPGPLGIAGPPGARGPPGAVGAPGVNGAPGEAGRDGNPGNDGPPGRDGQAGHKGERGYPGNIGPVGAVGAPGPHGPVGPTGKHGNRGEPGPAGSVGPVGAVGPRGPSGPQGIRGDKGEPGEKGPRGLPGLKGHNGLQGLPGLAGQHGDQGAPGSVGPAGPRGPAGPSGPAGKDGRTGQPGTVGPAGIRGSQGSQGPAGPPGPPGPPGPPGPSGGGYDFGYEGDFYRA

## CC(C)[C@H](NC(=O)[C@@H]1CSSC[C@H](NC(=O)[C@H](Cc2c[nH]cn2)NC(=O)[C@H](Cc2c[nH]c3ccccc23)NC(=O)[C@H](CCCCNC(=O)CC[C@H](C(=O)O)N2CCN(CC(=O)O)CCN(CC(=O)O)CCN(CC(=O)O)CC2)NC(=O)CC[C@H](C(=O)O)N2CCN(CC(=O)O)CCN(CC(=O)O)CCN(CC(=O)O)CC2)C(=O)N[C@@H](Cc2ccc(O)cc2)C(=O)N[C@@H]([C@@H](C)O)C(=O)N[C@@H](CCCCNC(=O)CC[C@H](C(=O)O)N2CCN(CC(=O)O)CCN(CC(=O)O)CCN(CC(=O)O)CC2)C(=O)N[C@@H](Cc2ccccc2)C(=O)N2CCC[C@H]2C(=O)N[C@@H](Cc2c[nH]cn2)C(=O)N[C@@H](Cc2c[nH]cn2)C(=O)N[C@@H](Cc2ccc(O)cc2)C(=O)N1)C(=O)N[C@@H](Cc1ccc(O)cc1)C(=O)N[C@@H](Cc1ccc(-c2ccccc2)cc1)C(N)=O [Compound ID No. 4] (X1-K(X1)WHCYTK(X1)FPHHYCVY[Bip]-NH2; disulfide 4-13)
[1]
  Kd: 2 µM

## CC(C)C[C@H](NC(=O)[C@@H]1CSSC[C@H](NC(=O)[C@H](Cc2c[nH]cn2)NC(=O)[C@H](Cc2c[nH]c3ccccc23)NC(=O)[C@H](Cc2ccc(O)cc2)NC(=O)[C@H](CCCCNC(=O)CC[C@H](C(=O)O)N2CCN(CC(=O)O)CCN(CC(=O)O)CCN(CC(=O)O)CC2)NC(=O)CC[C@H](C(=O)O)N2CCN(CC(=O)O)CCN(CC(=O)O)CCN(CC(=O)O)CC2)C(=O)N[C@@H]([C@@H](C)O)C(=O)N[C@@H]([C@@H](C)O)C(=O)N[C@@H](CCCCNC(=O)CC[C@H](C(=O)O)N2CCN(CC(=O)O)CCN(CC(=O)O)CCN(CC(=O)O)CC2)C(=O)N[C@@H](Cc2ccccc2)C(=O)N2CCC[C@H]2C(=O)N[C@@H](Cc2c[nH]cn2)C(=O)N[C@@H](Cc2c[nH]cn2)C(=O)N[C@@H](Cc2ccc(O)cc2)C(=O)N1)C(=O)N[C@@H](Cc1ccc(O)cc1)C(=O)N[C@@H](Cc1ccc(-c2ccccc2)cc1)C(N)=O [Compound ID No. 3] (X1-K(X1)YWHCTTK(X1)FPHHYCLY[Bip]-NH2; disulfide 5-14)
Human type I collagen
  Kd: 29.8 µM

## {GdDOTAGA″}-K(GdDOTAGA″)WHCTTK(GdDOTAGA″)FPHHYCLY[Bip]-NH2 (disulfide 4-13) [Compound ID No. 2]
[2]
  Kd: 20.6 µM

B1: Compound ID No. 4 (peptide)
peptide: KWHCYTKFPHHYCVY[Bip]-NH2
modifications: disulfide 4-13; also: GdDOTAGA on N-terminal nitrogen or Lys epsilon amines, sites not fixed
[2]
  Kd: 4.6 µM
